From patent US5814646A, “Inhibitors of amyloid beta-protein production” (Eli Lilly and Company, priority 1995, dated 1998)

test system: Aβ production in 293 751 SWE and CHO 751 SWE cells (transfected with APP-751 Swedish mutation); test: Aβ production inhibition activity in cells (Aβ ELISA of conditioned media, normalized for cytotoxicity by MTT); type: cell-based; settings: 5 μg/ml
Experimental: Two cell lines (human kidney cell line 293 and Chinese hamster ovary cell line CHO) were stably transfected with the gene for APP-751 containing the double mutation Lys651 -Met652 to Asn651 -Leu652 (APP-751 numbering) commonly called the Swedish mutation using the method described in Citron et al., (1992) Nature 360:672-674. The transfected cell lines were designated as 293 751 SWE and CHO 751 SWE, and were plated in Corning 96 well plates at 2.5×10^4 or 1×10^4 cells per well respectively in Dulbecco's minimal essential media plus 10% fetal bovine serum. Following overnight incubation at 37° C. in an incubator equilibrated with 10% carbon dioxide (CO2), the media were removed and replaced with 200 μL per well of media containing a test compound. After a two hour pretreatment period, the media were again removed and replaced with fresh media containing the test compound and the cells were incubated for an additional two hours.
Test compound stocks were prepared in DMSO such that at the final concentration used in the treatment, the concentration of DMSO did no exceed 0.5%. After treatment, plates were centrifuged in a Beckman GPR at 1200 rpm for five minutes at room temperature to pellet cellular debris from the conditioned media. From each well, 100 μL of conditioned media were transferred into an ELISA plate precoated with antibody 266 against βAP-13-28 (Seubert et al., supra.) and stored at 4° C. overnight. An ELISA assay employing labeled antibody 6C6 (against βAP-1-16) was run the next day to measure the amount of Aβ produced.
Cytotoxic effects of the test compounds were measured by a modification of the method of Hansen et al., (1989) J. Immun. Meth. 119:203-210. To the cells remaining in the tissue culture plate, was added 25 μL of a 3, (4,5-dimethylthiazol-2-yl)2,5-diphenyltetrazolium bromide (MTT) stock solution (5 mg/mL) to a final concentration of […]. Cells were incubated at 37° C. for one hour, and cellular activity was stopped by the addition of an equal volume of MTT lysis buffer (20% w/v sodium dodecylsulfate in 50% DMF, pH 4.7). Complete extraction was achieved by overnight shaking at room temperature. The difference in the OD562 nm and the OD650 nm was measured in a Molecular Devices UVmax microplate reader as an indicator of the cellular viability.
The results of the Aβ ELISA were fit to a standard curve and expressed as ng/mL Aβ peptide. In order to normalize for cytotoxicity, these Aβ results were divided by the MTT results and expressed as a percentage of the results from a drug -free control.
The test compounds were assayed for Aβ production inhibition activity in cells at […] using the test. The results presented in Table 1 are the mean and standard deviation of at least six replicate assays. IC50 means the concentration of test compound in micromoles/liter required to inhibit Aβ production by 50%.

| SMILES | inhibition at 5 µg/mL |
| --- | --- |
| CCCCCCNC(=S)N(O)Cc1ccc(OCc2cc(OC)cc(OC)c2)cc1 [Compound 61] | 28% |
| CCCCCCNC(=S)N(O)C(Cc1ccccc1)c1cccc(Oc2ccc(C(C)(C)C)cc2)c1 (centres unmarked) [Compound 34] | 20% |
| ON(Cc1ccc(OCc2ccc(Cl)c(Cl)c2)cc1)C(=S)NCc1ccccc1 [Compound 54] | 25% |
| CCCCCCNC(=S)N(O)Cc1ccc(OCc2ccc(Cl)c(Cl)c2)cc1 [Compound 55] | 37% |
| CC(C)(C)c1ccc(Oc2cccc(C(Cc3ccccc3)N(O)C(=S)NCc3ccccc3)c2)cc1 (centres unmarked) [Compound 33] | 16% |
| ON(Cc1ccc(-c2ccccc2)cc1)C(=S)NCc1ccccc1 [Compound 77] | 2% |

same assay, conditions: 10 μg/ml, % of drug-free control, normalized to MTT

| SMILES | inhibition at 10 µg/mL |
| --- | --- |
| CC(C)(C)c1ccc(Oc2ccccc2NC(=S)NCc2ccc(Cl)c(Cl)c2)cc1 [Compound 183] | 24% |
| CC(c1cccc(Oc2ccc(C(C)(C)C)cc2)c1)N(C(=S)NCc1ccccc1)N(C)C (centres unmarked) [Compound 38] | 32% |
| O=C(Nc1ccc(Cl)cc1)Nc1nncs1 [Compound 256] | 42% |
| Cc1nnc(NC(=O)Nc2ccccc2F)s1 [Compound 249] | 6% |
| CSc1ccc(NC(=O)Nc2ccc(Cl)cc2)cc1 [Compound 156] | 13% |
| CCCc1cc(C(C)(C)C)ccc1Oc1ccc(NC(=S)Nc2ccc(Cl)c(C(F)(F)F)c2)cc1 [Compound 193] | 29% |
| COc1ccc(CNC(=S)N(O)C(C)c2cccc(Oc3ccc(C(C)(C)C)cc3)c2)cc1OC (centres unmarked) [Compound 11] | 31% |
| CCCCCCNC(=S)Nc1ccc(C(=O)c2ccccc2)c(O)c1CCC [Compound 202] | 42% |
| CCCc1c(COc2ccc(CN(O)C(=S)NCc3ccccc3)cc2)ccc(C(C)=O)c1O [Compound 67] | 42% |

same assay, conditions: 2 h pretreatment + 2 h incubation

| SMILES | IC50 |
| --- | --- |
| FC(F)(F)c1cc(NC(=S)Nc2ccc(Sc3ccccn3)cc2)ccc1Cl [Compound 223] | 8.3 µM |
| CC(c1cccc(Oc2ccc(C(C)(C)C)cc2)c1)N(O)C(=S)NCc1cccc(Cl)c1 (centres unmarked) [Compound 16] | 12 µM |
| CC(C)(C)c1ccc([S+]([O-])c2cccc(CN(O)C(=S)NCc3ccccc3)c2)cc1 (centres unmarked) [Compound 91] | 17.1 µM |
| CC(C)(C)c1ccccc1Oc1ccc(NC(=S)NCc2ccccc2)cc1 [Compound 188] | 9.4 µM |
| CC(C)(C)c1ccc(Oc2cccc(CN(O)C(=S)NCc3ccccc3)c2)cc1 [Compound 26] | 3.4 µM |
| CC(C)(C)c1ccc(Oc2ccc(NC(=S)NCc3ccc(F)c(F)c3)cc2)cc1 [Compound 129] | 4.5 µM |
| CC(c1cccc(Oc2ccc(C(C)(C)C)cc2)c1)N(O)C(=S)NCc1cccc(F)c1 (centres unmarked) [Compound 18] | 18.3 µM |
| CCCc1cc(C(C)(C)C)ccc1Oc1cccc(CN(O)C(=O)Nc2ccc(Cl)c(C(F)(F)F)c2)c1 [Compound 103] | 20 µM |
| COc1ccc(CNC(=S)N(O)C(C)c2cccc(Oc3ccc(C(C)(C)C)cc3)c2)cc1 (centres unmarked) [Compound 10] | > 20 µM |
| CC(C)(C)c1ccc(Oc2ccc(NC(=S)NCC3CCCNC3)cc2)cc1 (centres unmarked) [Compound 127] | 11.7 µM |
| CC(C)(C)c1cccc(Oc2ccc(NC(=S)NCc3cccc(C(F)(F)F)c3)cc2)c1 [Compound 178] | 8.6 µM |
| CC(c1cccc(Oc2ccc(C(C)(C)C)cc2)c1)N(O)C(=S)NCc1ccc(Cl)cc1 (centres unmarked) [Compound 3] | 11.7 µM |
| O=C(Nc1ccc(Cl)c(Cl)c1)Nc1nnc(C(F)(F)F)s1 [Compound 236, 1-(5-trifluoromethyl-1,3,4-thiadiazol-2-yl)-3-(3,4-dichlorophenyl)urea] | 4.2 µM |
| COc1c(C(C)(C)C)cc(COc2cccc(CN(O)C(=S)NCc3ccccc3)c2)cc1C(C)(C)C [Compound 72] | 8.1 µM |
| CC(C)(C)c1ccc(Oc2cccc(NC(=S)Nc3ccc(Cl)c(C(F)(F)F)c3)c2)cc1 [Compound 168] | 3.9 µM |
| CCCc1c(NC(=S)Nc2cccc(C(F)(F)F)c2)ccc(C(=O)c2ccccc2)c1O [Compound 201] | 20 µM |
| CC(C)(C)c1ccc(Oc2ccc(NC(=S)NCc3ccc(F)c(Cl)c3)cc2)cc1 [Compound 131] | 5 µM |
